{
  "source": "patent EP4527946A1",
  "about": "“METHOD FOR PREDICTING THE RESPONSE TO A DUAL S[…] KINASE TTK INHIBITOR THERAPY” (Pangaea Oncology, S.A, priority 2023, dated 2025)",
  "key": {"[1]": {"system": "EGFR TKI-resistant clones derived from the PC9 cell line and from 11-18 cells", "assay": "Dose-response (cell viability) in EGFR TKI-resistant clones", "assay_type": "cell-based", "conditions": "Homo sapiens", "text": "All parental cell lines used in the study were purchased from the ATCC or other cell banks, with the exception of PC9 and 11-18. Parental PC9 cells were provided by F. Hoffman-La Roche Ltd (Basel, Switzerland) with the authorization of Dr. Mayumi Ono (Kyushu University, Fukuoka, Japan); while parental 11-18 cells were kindly provided by Dr. Mayumi Ono. Resistant cells were derived by exposing parental cells to EGFR TKIs, as described in [Bertran-Alamillo et al., (2019) AURKB as a target in non-small cell lung cancer with acquired resistance to anti-EGFR therapy. Nat Commun 10, 1812, and Jacobsen K, et al., (2017) Convergent Akt activation drives acquired EGFR inhibitor resistance in lung cancer. […] All tumor cells were grown in a humidified atmosphere with 5% CO2 at 37°C in RPMI 1640 + 10% fetal bovine serum (FBS), 50 µg/mL penicillin-streptomycin and 2 mM L-Glutamine. Cell lines were routinely tested for mycoplasma contamination and authenticated by analyzing >20 polymorphisms using a 30-gene panel NGS.\n(§1) Each concentration of drug was tested in sextuplicates. […] Data were derived from at least two independent experiments. […]"}, "NCl-H1819 cells": {"system": "NCl-H1819 cells", "assay": "Flow cytometry (cell cycle, Annexin V)", "assay_type": "cell-based", "conditions": "TTKi sensitive NCl-H1819 cells", "experimental": "(§2) For cell cycle analyses, cells were plated in T-25 flasks, allowed to attach, treated with drugs in RPMI 1640 + 10% FBS, trypsinised and centrifuged. Cell pellets were resuspended in PBS, fixed in 70% ethanol and incubated o/n at -20 °C. Fixed cells were subsequently re-centrifuged at 400 xg for 5 min at 4 °C; resuspended in 250 µL of PBS with 50 µg/mL RNAse A (Sigma Aldrich, Saint Louis, MO), incubated for 1 h at 37 °C and stained with propidium iodide (PI) (Roche Diagnostics, Basel, Switzerland) for 30 min at room temperature.\n(§3) For cell death analyses, the Annexin-V-FLUOS (An) staining kit (Roche Diagnostics) was employed, according to the manufacturer's instructions. Stained cells were sorted with a FACSCanto II cytometer (BD Biosciences, Franklin Lakes, NJ) using the FACSDiva software version 6.1.2. The combination of Annexin V and PI was used to differentiate four cell populations; viable cells (An -/PI-), early apoptotic (An+/PI-), necrotic (An-/PI+) and later apoptotic/necrotic (An+/PI+)."}, "PC9-ER": {"system": "PC9-ER", "assay": "cells", "conditions": "Homo sapiens, PC-9/ER, read-out: IC50s", "experimental": "as §1"}, "PC9-ER and PC-GR4 clones": {"system": "PC9-ER and PC-GR4 clones", "assay": "Flow cytometry (cell cycle, annexin V/PI) in clones", "assay_type": "cell-based", "conditions": "50 nM", "experimental": "as §2, §3"}, "SNU-C1": {"system": "SNU-C1", "assay": "Cell viability (MTT) assay", "assay_type": "cell-based", "conditions": "Homo sapiens, SNU-C1, origin Colon, Td 31 h, drug for 2-3 doubling times", "experimental": "as §1"}, "SK-MES-1": {"system": "SK-MES-1", "assay": "Cell viability (MTT) assay", "assay_type": "cell-based", "conditions": "Homo sapiens, SK-MES-1, origin LS, Td 50 h, drug for 2-3 doubling times", "experimental": "as §1"}, "SK-OV-3": {"system": "SK-OV-3", "assay": "Cell viability (MTT) assay", "assay_type": "cell-based", "conditions": "Homo sapiens, SK-OV-3, origin Ovarian, Td 48 h, drug for 2-3 doubling times", "experimental": "as §1"}, "A549": {"system": "A549", "assay": "Cell viability (MTT) assay", "assay_type": "cell-based", "conditions": "Homo sapiens, A549, origin LA, Td 22 h, drug for 2-3 doubling times", "experimental": "as §1"}, "HCC366": {"system": "HCC366", "assay": "Cell viability (MTT) assay", "assay_type": "cell-based", "conditions": "HCC366, origin LA, Td 65 h, drug for 2-3 doubling times", "experimental": "as §1"}, "EBC-1": {"system": "EBC-1", "assay": "Cell viability (MTT) assay", "assay_type": "cell-based", "conditions": "Homo sapiens, EBC-1, origin LS, Td 42 h, drug for 2-3 doubling times", "experimental": "as §1"}, "NCI-H1975": {"system": "NCI-H1975", "assay": "Cell viability (MTT) assay", "assay_type": "cell-based", "conditions": "Homo sapiens, NCI-H1975, origin LA, Td 39 h, drug for 2-3 doubling times", "experimental": "as §1"}, "MDA-MB-231": {"system": "MDA-MB-231", "assay": "Cell viability (MTT) assay", "assay_type": "cell-based", "conditions": "Homo sapiens, MDA-MB-231, origin Breast, Td 25 h, drug for 2-3 doubling times", "experimental": "as §1"}, "T98G": {"system": "T98G", "assay": "Cell viability (MTT) assay", "assay_type": "cell-based", "conditions": "Homo sapiens, origin GB, Td 22 h, drug for 2-3 doubling times", "experimental": "as §1"}, "NCI-H1819": {"system": "NCI-H1819", "assay": "Cell viability (MTT) assay", "assay_type": "cell-based", "conditions": "NCI-H1819, origin LA, Td 51 h, drug for 2-3 doubling times", "experimental": "as §1"}, "LC-2/ad": {"system": "LC-2/ad", "assay": "Cell viability (MTT) assay", "assay_type": "cell-based", "conditions": "Homo sapiens, origin LA, Td 58 h, drug for 2-3 doubling times", "experimental": "as §1"}, "RT-112": {"system": "RT-112", "assay": "Cell viability (MTT) assay", "assay_type": "cell-based", "conditions": "Homo sapiens, RT-112, origin UB, Td 24 h, drug for 2-3 doubling times", "experimental": "as §1"}, "FADU": {"system": "FADU", "assay": "Cell viability (MTT) assay", "assay_type": "cell-based", "conditions": "Homo sapiens, origin HNSCC, Td 30 h, drug for 2-3 doubling times", "experimental": "as §1"}, "MDA-MB-468": {"system": "MDA-MB-468", "assay": "Cell viability (MTT) assay", "assay_type": "cell-based", "conditions": "Homo sapiens, MDA-MB-468, origin Breast, Td 35 h, drug for 2-3 doubling times", "experimental": "as §1"}, "NCI-H23": {"system": "NCI-H23", "assay": "Cell viability (MTT) assay", "assay_type": "cell-based", "conditions": "Homo sapiens, NCI-H23, origin LA, Td 38 h, drug for 2-3 doubling times", "experimental": "as §1"}, "NCI-H2228": {"system": "NCI-H2228", "assay": "Cell viability (MTT) assay", "assay_type": "cell-based", "conditions": "Homo sapiens, NCI-H2228, origin LA, Td 96 h, drug for 2-3 doubling times", "experimental": "as §1"}, "NCI-H3122": {"system": "NCI-H3122", "assay": "Cell viability (MTT) assay", "assay_type": "cell-based", "conditions": "Homo sapiens, NCI-H3122, origin LA, Td 49 h, drug for 2-3 doubling times", "experimental": "as §1"}, "MIA-PaCa-2": {"system": "MIA-PaCa-2", "assay": "Cell viability (MTT) assay", "assay_type": "cell-based", "conditions": "Homo sapiens, MIA-PaCa-2, origin Pancreas, Td 26 h, drug for 2-3 doubling times", "experimental": "as §1"}, "DU-145": {"system": "DU-145", "assay": "Cell viability (MTT) assay", "assay_type": "cell-based", "conditions": "Homo sapiens, DU-145, origin Pr, Td 30 h, drug for 2-3 doubling times", "experimental": "as §1"}, "HCC78": {"system": "HCC78", "assay": "Cell viability (MTT) assay", "assay_type": "cell-based", "conditions": "Homo sapiens, HCC78, origin LA, Td 38 h, drug for 2-3 doubling times", "experimental": "as §1"}, "WM793": {"system": "WM793", "assay": "Cell viability (MTT) assay", "assay_type": "cell-based", "conditions": "Homo sapiens, WM793, origin Melan., Td 48 h, drug for 2-3 doubling times", "experimental": "as §1"}},
  "data": [
    {"smiles": "COc1ccc(Oc2cc(NCCC(F)(F)F)c3ncc(-c4ccc(C(=O)NC5CC5)c(C)c4)n3n2)c(F)c1F", "note": "[BAY1217389]", "values": [
      {"measurement": "IC50", "setting": "[1]; PC-9, six clones sensitive to the TTKi", "result": "< 1", "unit": "nM"},
      {"measurement": "IC50", "setting": "[1]; PC-9, twelve TTKi resistant clones", "result": "> 200", "unit": "nM"},
      {"measurement": "cell death (Annexin V)", "setting": "NCl-H1819 cells", "result": "extensive induction of cell death"},
      {"measurement": "cell cycle effect (flow cytometry)", "setting": "NCl-H1819 cells; 50 nM", "result": "G2/M arrest"},
      {"measurement": "IC50", "setting": "PC9-ER", "result": "> 10000", "unit": "nM"},
      {"measurement": "effect after G2/M arrest (flow cytometry)", "setting": "PC9-ER and PC-GR4 clones; resistant clones", "result": "extensive polyploidy"},
      {"measurement": "effect after G2/M arrest (flow cytometry)", "setting": "PC9-ER and PC-GR4 clones; sensitive clones", "result": "cell death"},
      {"measurement": "IC50", "setting": "SNU-C1", "result": "> 1000", "unit": "nM"},
      {"measurement": "IC50", "setting": "SK-MES-1", "result": "> 1000", "unit": "nM"},
      {"measurement": "IC50", "setting": "SK-OV-3", "result": "> 1000", "unit": "nM"},
      {"measurement": "IC50", "setting": "A549", "result": "> 1000", "unit": "nM"},
      {"measurement": "IC50", "setting": "HCC366", "result": "> 1000", "unit": "nM"},
      {"measurement": "IC50", "setting": "EBC-1", "result": "4.6 ± 0.6", "unit": "nM"},
      {"measurement": "IC50", "setting": "NCI-H1975", "result": "> 1000", "unit": "nM"},
      {"measurement": "IC50", "setting": "MDA-MB-231", "result": "> 1000", "unit": "nM"},
      {"measurement": "IC50", "setting": "T98G", "result": "> 1000", "unit": "nM"},
      {"measurement": "IC50", "setting": "NCI-H1819", "result": "2.6 ± 0.3", "unit": "nM"},
      {"measurement": "IC50", "setting": "LC-2/ad", "result": "3.6 ± 0.3", "unit": "nM"},
      {"measurement": "IC50", "setting": "RT-112", "result": "3.8 ± 0.3", "unit": "nM"},
      {"measurement": "IC50", "setting": "FADU", "result": "> 1000", "unit": "nM"},
      {"measurement": "IC50", "setting": "MDA-MB-468", "result": "4.1 ± 0.3", "unit": "nM"},
      {"measurement": "IC50", "setting": "NCI-H23", "result": "> 1000", "unit": "nM"},
      {"measurement": "IC50", "setting": "NCI-H2228", "result": "> 1000", "unit": "nM"},
      {"measurement": "IC50", "setting": "NCI-H3122", "result": "7.2 ± 0.5", "unit": "nM"},
      {"measurement": "IC50", "setting": "MIA-PaCa-2", "result": "> 1000", "unit": "nM"},
      {"measurement": "IC50", "setting": "DU-145", "result": "> 1000", "unit": "nM"},
      {"measurement": "IC50", "setting": "HCC78", "result": "> 1000", "unit": "nM"},
      {"measurement": "IC50", "setting": "WM793", "result": "> 1000", "unit": "nM"}
    ]}
  ]
}
